Data on three compounds can be found in ChEMBL document CHEMBL4145695, “Histone Deacetylase 6-Selective Inhibitors and the Influence of Capping Groups on Hydroxamate-Zinc Denticity” (J Med Chem, 2018).

The target in assay [1] is Histone deacetylase 1 (Homo sapiens, UniProt Q13547). Nature of the assay: Inhibition of human recombinant HDAC1 incubated for 90 mins using fluorogenic substrate ZMAL (Z-Lys(Ac)-AMC) by fluorescence based assay.
Assay [2] addresses T1, Protein deacetylase HDAC6 (Homo sapiens, UniProt Q9UBN7).
T1 sequence (Q9UBN7 whole entry): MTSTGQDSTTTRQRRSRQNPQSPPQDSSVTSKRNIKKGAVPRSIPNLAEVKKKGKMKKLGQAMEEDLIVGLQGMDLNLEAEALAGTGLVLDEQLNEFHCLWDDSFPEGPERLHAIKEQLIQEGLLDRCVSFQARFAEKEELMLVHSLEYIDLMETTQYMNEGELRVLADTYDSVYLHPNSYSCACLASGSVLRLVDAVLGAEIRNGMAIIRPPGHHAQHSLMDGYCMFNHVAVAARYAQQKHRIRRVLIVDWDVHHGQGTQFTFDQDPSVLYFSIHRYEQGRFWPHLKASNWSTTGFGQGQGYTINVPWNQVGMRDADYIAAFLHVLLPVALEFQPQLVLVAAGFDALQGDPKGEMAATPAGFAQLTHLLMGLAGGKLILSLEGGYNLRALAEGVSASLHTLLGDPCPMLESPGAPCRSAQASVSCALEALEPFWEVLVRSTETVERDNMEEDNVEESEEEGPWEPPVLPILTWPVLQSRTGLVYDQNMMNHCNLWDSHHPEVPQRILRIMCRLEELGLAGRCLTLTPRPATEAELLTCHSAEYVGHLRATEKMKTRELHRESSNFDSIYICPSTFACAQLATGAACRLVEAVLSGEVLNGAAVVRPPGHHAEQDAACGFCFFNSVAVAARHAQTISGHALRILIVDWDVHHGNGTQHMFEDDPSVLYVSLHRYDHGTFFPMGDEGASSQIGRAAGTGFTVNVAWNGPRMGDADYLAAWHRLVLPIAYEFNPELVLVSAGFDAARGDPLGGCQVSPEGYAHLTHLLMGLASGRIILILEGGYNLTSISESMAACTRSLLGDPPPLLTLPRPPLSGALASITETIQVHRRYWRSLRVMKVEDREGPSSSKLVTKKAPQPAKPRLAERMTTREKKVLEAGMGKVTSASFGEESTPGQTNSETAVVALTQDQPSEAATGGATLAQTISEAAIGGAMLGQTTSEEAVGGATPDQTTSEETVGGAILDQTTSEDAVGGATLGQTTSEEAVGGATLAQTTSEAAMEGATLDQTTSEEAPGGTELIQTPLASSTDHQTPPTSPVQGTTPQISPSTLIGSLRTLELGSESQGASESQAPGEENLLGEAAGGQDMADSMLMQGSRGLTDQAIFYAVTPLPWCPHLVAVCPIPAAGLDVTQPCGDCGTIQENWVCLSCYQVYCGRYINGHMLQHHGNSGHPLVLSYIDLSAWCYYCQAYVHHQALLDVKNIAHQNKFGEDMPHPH
Nature of the assay: Inhibition of human recombinant HDAC6 incubated for 90 mins using fluorogenic substrate ZMAL (Z-Lys(Ac)-AMC) by fluorescence based assay.

The species entered for assay [3] is Homo sapiens. Nature of the assay: Selectivity index, ratio of IC50 for inhibition of human recombinant HDAC1 to IC50 for inhibition of human recombinant HDAC6.

Chain of Histone deacetylase 1 (Q13547 whole entry): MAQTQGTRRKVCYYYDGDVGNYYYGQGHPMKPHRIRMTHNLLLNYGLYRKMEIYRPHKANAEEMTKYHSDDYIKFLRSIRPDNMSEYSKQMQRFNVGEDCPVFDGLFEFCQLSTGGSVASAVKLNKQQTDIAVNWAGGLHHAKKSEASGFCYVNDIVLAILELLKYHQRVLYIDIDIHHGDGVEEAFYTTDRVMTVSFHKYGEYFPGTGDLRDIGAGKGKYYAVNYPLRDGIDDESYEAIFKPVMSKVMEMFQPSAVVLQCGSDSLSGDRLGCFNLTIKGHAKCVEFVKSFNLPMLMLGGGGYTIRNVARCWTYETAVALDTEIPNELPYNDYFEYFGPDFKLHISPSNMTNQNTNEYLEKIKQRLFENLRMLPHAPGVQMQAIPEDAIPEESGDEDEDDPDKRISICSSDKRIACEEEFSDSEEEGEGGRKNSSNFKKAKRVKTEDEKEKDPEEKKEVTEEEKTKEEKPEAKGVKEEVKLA

One may read the IC50 as the midpoint of a concentration-inhibition curve. With `CN(C)c1ccc(C(=O)N(CC(=O)NCc2ccccc2)Cc2ccc(C(=O)NO)cc2)cc1`, the values for the IC50 in assay [1] and in assay [2] were 0.008 µM and 0.014 µM, respectively. Besides, the Ratio IC50 in assay [3] stood at 0.6.
Taken in the same sequence, the figures for `Cc1cc(C)cc(C(=O)N(CC(=O)NC2CCCCC2)Cc2ccc(C(=O)NO)cc2)c1` were 0.27 µM, 0.011 µM and 25.
Take `CN(Cc1ccc(C(=O)NO)cc1F)CC12CC3CC(CC(C3)C1)C2`: in assay [1], the IC50 was above 1000 µM.
